The values below come from patent US20210252115A1, “INHIBITION OF CATALYTIC SITE COMMON TO MULTIPLE 3 ALPHA-OXIDOREDUCTASES FOR TREATMENT OF PROSTATE CANCER” (Health Research, Inc., priority 2016, published 2021).

One assay concerns VCaP cells. In words: Androgen levels (LC-MS/MS) in VCaP cells. The assay is classed as cell-based, human. The settings on record: for DHT levels after substrate treatment: VCaP, 12 h in SFM with 20 nM DIOL, 20 nM AND or 1 nM T, one cell pellet per condition; for DHT levels / DHT synthesis: VCaP in SFM, 1 μM dutasteride 12 h, no substrate added. On the procedure:
FIG. 8: Intracellular T and DHT levels from VCaP cells; Related to FIG. 3. VCaP cells were treated for 12 h in SFM with or without 1 μM Dut, 1 nM T, 20 nM DIOL or 20 nM AND. VCaP cells were harvested, one cell pellet was analyzed for each condition and androgen levels were measured using LC-MS/MS as described in Methods.
(§1) Experiments were performed in triplicate.
(§2) Empty plasmid, or plasmids for over-expression of RDH16 wild-type or RDH16-Y176F, K180R, were expressed into VCaP, C4-2 or CWR-R1 cells and DHT levels were measured using LC-MS/MS. […] C4-2 cells produced measurable levels of DHT that were reduced by dutasteride treatment (p=0.001; FIG. 6C; Table 10). […] C4-2 cells that expressed RDH16-Y176, K180R produced DHT levels similar to C4-2 cells with empty plasmid.

Another assay deals with LAPC-4 cells. In words: Androgen levels (LC-MS/MS) in transfected LAPC-4 cells. It is filed as cell-based, human. The settings on record: for DHT levels after substrate treatment: 20 nM DIOL or 1 nM T 12 h, vs SFM; for 5α-dione production after substrate treatment: 20 nM DIOL or 20 nM AND 12 h. The method, then: LAPC-4 cells were plated at 1.2×10^5/well and CV-1 cells at 1×10^4/well in 6-well tissue culture plates (Corning). Media and cell pellets from two 6-well plates were combined to generate 1 media and 1 cell pellet sample for liquid chromatography-tandem mass spectrometry (LC-MS/MS) analysis. LAPC-4 cells were transfected using the Effectene Transfection Kit (Invitrogen, Grand Island, N.Y.). Forty-eight h after transfection, growth media was removed and LAPC-4 cells were washed once with Dulbecco's phosphate buffered saline (PBS, Corning). LAPC-4 cells were treated with serum-free complete media (SFM, Corning) alone or with 1 nM T, 20 nM DIOL 20 nM 5α-androstan-3α-ol-17-one (androsterone; AND) (Steraloids, Newport, R.I.) or 1 μM dutasteride (Selleckchem, Houston, Tex.) for 12 h. CV-1 cells were transfected using X-tremeGene HP transfection reagent (Roche Diagnostics Corporation, Indianapolis, Ind.). After 48 h, growth media were aspirated, CV-1 cells were washed once with PBS and incubated in SFM alone or with 20 nM AND (Steraloids) for 12 h.
After 12 h treatment, media (total 24 mL) were collected in 50 mL conical tubes (Corning). Cells were released using trypsin and collected in 15 mL conical tubes (Corning). The cells were washed 3 times using PBS, re-suspended in 1 mL PBS and 5% of the cell suspension was removed for protein concentration measurement and western blot analysis. The remaining 95% of the cell suspension was centrifuged and the supernatant was removed and discarded. Cell pellets were stored at −80° C. until analyzed using LC-MS/MS.
(§3) Cell pellet and media samples were analyzed over 9 runs for 5 androgens T, DHT, dehydroepiandrosterone, ASD and AND using a validated LC-MS/MS method. […] Study samples were quantitated using aqueous-based spiked calibration standards and pre-spiked quality control samples prepared in 2× charcoal-stripped human postmenopausal female plasma (Bioreclamation, LLC, Westbury, N.Y.).
Androgen concentrations (pmoles/mg protein) in cell lysates measured using LC-MS/MS (ng/mL) were multiplied by the total volume of the lysate (1 mL), normalized by the total amount of protein of the cell pellet (mg), divided by the molecular weight of the androgen (ng/nmole), and converted to pmoles. Media androgen concentrations (ng/mL) were multiplied by the total volume of media (24 mL), normalized against total protein of the cell culture (mg), divided by the molecular weight of the androgen (ng/nmole) and converted to pmoles. Cell pellet and media androgen concentrations were reported combined in Results and separately in Supplemental Results. Experiments were performed in triplicate.
Cell pellets were resuspended in HPLC-grade water and vortexed or sonicated to disrupt cell membranes to obtain a homogeneous suspension. Samples were extracted using 0.25 ml quality control, plasma blank or sample in 0.75-2.0 mL HPLC-grade water, 0.1 ml internal standard (IS) solution (75.0/225 pg/mL d3-T/d3-DHT) and 4 mL methyl-tert-butyl ether (MTBE, Omnisolve®, EMD Milipore, Billerica, Mass.) in glass screw-top tubes. Calibrators were prepared using 50 μl spiking solution prepared in 75% methanol and added to the extraction tube. Either the entire 1 mL cell pellet suspension was added to the extraction tube and the original container rinsed with 25% methanol in water or samples were volume and compositionally corrected. Tubes were capped with Teflon-lined caps, vortexed, rotated 15 min and centrifuged using a Sorvall model RT6000B centrifuge (Thermo Scientific) at 2,800 rpm and 4° C. for 15-30 min to separate liquid phases. The aqueous phase was frozen in a dry ice/acetone bath and MTBE layer was poured into a clean glass conical tube. MTBE was evaporated at 37° C. with nitrogen and the residue was reconstituted with 60% methanol. The suspension was centrifuged using Heraeus Multifuge X3R centrifuge (Thermo Scientific) at 2,800 rpm and 4° C. for 5 min to separate insoluble materials. An aliquot of the supernatant was injected. […]

The test system of the next assay is SRD5A. In words: Tissue DHT levels (LC-MS/MS), Selenium and Finasteride Pre-Treatment Trial. Conditions: research subjects with CaP before radical prostatectomy, benign and malignant macro-dissected samples; data not shown. The assay is classed as in vivo, human.
The test system of another assay is CWR-R1 cells. Briefly: DHT levels (LC-MS/MS) in transfected CWR-R1 cells. It is filed as cell-based, human. On the procedure: as §1, §2
The conditions of assay [1]: CaP, background statement; cited from earlier work.
Another assay deals with C4-2 cells. In words: DHT levels (LC-MS/MS) in transfected C4-2 cells. The assay is classed as cell-based, human. On the procedure: as §1, §2
A further assay deals with LNCaP cells. Briefly: Androgen levels (LC-MS/MS) in transfected LNCaP cells. Conditions: dutasteride 12 h, cell pellet. The assay is classed as cell-based, human. The method, then: FIG. 11: Intracellular LNCaP T levels after treatment with dutasteride or SFM. Related to FIG. 6. LNCaP cells were transfected with empty plasmid, wild-type or Y176F, K180R RDH16, treated with SFM or SFM with dutasteride for 12 h and cell pellet androgen levels were measured using LC-MS/MS. T levels for LNCaP and western blot analysis for DDK tag.
as §1

A further assay concerns CV-1 cells. The settings on record: CV-1, 20 nM AND 12 h, measurable only in the media. The method, then:
LAPC-4 cells were plated at 1.2×10^5/well and CV-1 cells at 1×10^4/well in 6-well tissue culture plates (Corning). Media and cell pellets from two 6-well plates were combined to generate 1 media and 1 cell pellet sample for liquid chromatography-tandem mass spectrometry (LC-MS/MS) analysis. LAPC-4 cells were transfected using the Effectene Transfection Kit (Invitrogen, Grand Island, N.Y.). Forty-eight h after transfection, growth media was removed and LAPC-4 cells were washed once with Dulbecco's phosphate buffered saline (PBS, Corning). […]
After 12 h treatment, media (total 24 mL) were collected in 50 mL conical tubes (Corning). […] Cell pellets were stored at −80° C. until analyzed using LC-MS/MS.
as §3
Androgen concentrations (pmoles/mg protein) in cell lysates measured using LC-MS/MS (ng/mL) were multiplied by the total volume of the lysate (1 mL), normalized by the total amount of protein of the cell pellet (mg), divided by the molecular weight of the androgen (ng/nmole), and converted to pmoles. […]

“Also recorded” adds a separate entry of the source.

Description for SRD5A: TMAs were constructed using the same process on tissues collected from a randomized, double-blind, placebo-controlled clinical trial of selenium supplementation and finasteride treatment of patients with CaP prior to robotic prostatectomy (Selenium and Finasteride Pre-Treatment Trial ID: NCT00736645). Forty-seven patients scheduled for radical prostatectomy were randomized into one of four treatment groups: placebo, finasteride, selenium or combination finasteride and selenium.
To address the clinical relevance of the 3α-oxidoreductases, LC-MS/MS was applied to tissues obtained from a randomized double-blind placebo-controlled clinical trial of selenium supplementation and finasteride treatment of research subjects with CaP prior to radical prostatectomy (Selenium and Finasteride Pre-Treatment Trial, 1104607). Research subjects who received finasteride alone or in combination with selenium were compared to research subjects who received selenium alone or placebo.

As for `C[C@]12CC[C@@H](O)C[C@@H]1CC[C@@H]1[C@@H]2CC[C@]2(C)[C@@H](O)CC[C@@H]12` [DIOL, 5α-androstane-3α, 17β-diol], the “DHT levels after substrate treatment” value in the assay on VCaP cells is “increased”. In the assay on LAPC-4 cells (LAPC-4 with empty plasmid), the “DHT levels after substrate treatment” value is “higher” and the “5α-dione production after substrate treatment” value is “produced”.

Take `C[C@]12CC[C@H]3[C@@H](CCC4=CC(=O)CC[C@@]43C)[C@@H]1CC[C@@H]2O` [T, testosterone]: the results for the “DHT levels after substrate treatment” value in the assay with VCaP cells and with LAPC-4 cells (LAPC-4 with empty plasmid) were “not” and “higher”, respectively.

`CC(C)(C)NC(=O)[C@H]1CC[C@H]2[C@@H]3CC[C@H]4NC(=O)C=C[C@]4(C)[C@H]3CC[C@]12C` [finasteride]: the “CaP tissue levels of DHT” value in the assay on SRD5A was “decreased”.

Turning to `C[C@]12C=CC(=O)N[C@@H]1CC[C@@H]1[C@@H]2CC[C@]2(C)[C@@H](C(=O)Nc3cc(C(F)(F)F)ccc3C(F)(F)F)CC[C@@H]12` [dutasteride], the DHT levels entry is reported as “appeared lower” in the assay on CWR-R1 cells (CWR-R1 expressing RDH16-Y176F, K180R, dutasteride vs SFM); “did not lower” in the assay on CWR-R1 cells (CWR-R1 with empty plasmid or wild-type RDH16, dutasteride vs SFM); “affected minimally” with VCaP cells (VCaP expressing wild-type RDH16, dutasteride vs SFM); “appeared to be reduced” with C4-2 cells (C4-2 expressing wild-type RDH16, dutasteride vs SFM); “reduced” in the assay on C4-2 cells (C4-2 with empty plasmid, dutasteride vs SFM, p=0.001 in text); “lowered further” with LAPC-4 cells (LAPC-4 expressing mutant RDH16 or DHRS9 plus dutasteride, vs LAPC-4 treated with dutasteride alone). In addition, the DHT levels entry with LAPC-4 cells (LAPC-4 expressing wild-type RDH16 or DHRS9, 1 μM dutasteride 12 h vs SFM) is recorded as “No effect”; in the assay with LAPC-4 cells (LAPC-4 with empty plasmid, 1 μM dutasteride 12 h vs SFM, cell pellet, p=0.041), “decreased; also recorded: lower”. Moreover, in assay [1], the “intratumoral DHT levels” value is on record as “not depleted”. In addition, the “DHT levels / DHT synthesis” value was “did not lower” with VCaP cells and “did not impair DHT synthesis” with VCaP cells (listed as Dutasteride). Also, the T levels result with LAPC-4 cells (all LAPC-4 cells except those expressing RDH5-Δcat, dutasteride 12 h, cell pellet) was “lowered”; in the assay with LNCaP cells it was “not detected”.

For the compound `C[C@]12CC[C@@H](O)C[C@@H]1CC[C@@H]1[C@@H]2CC[C@]2(C)C(=O)CC[C@@H]12` [AND, 5α-androstan-3α-ol-17-one], the “DHT levels after substrate treatment” value with VCaP cells is “increased”. For the same compound, the “5α-dione production after substrate treatment” value in the assay on CV-1 cells is “only a small amount”; in the assay with LAPC-4 cells (LAPC-4 with empty plasmid), “produced”.
